Experimental data taken from patent US12441768B2, “Compositions and methods for treating endometriosis” (EndoMet Biosciences, Inc., priority 2018, dated 2025).
Where a SMILES comes first, the peptide text is derived from it.

Tests used:
[1] = target: Wnt-responsive promoter (TCF/LEF); experiment: Wnt-dependent luciferase reporter assay; format: cell-based, murine
Protocol: The luciferase reporter assay is commonly used as a tool to study gene expression at the transcriptional level. Peptides from libraries described herein were characterized for ability to suppress transcription in cells with luciferase expression controlled by a Wnt-responsive promoter. Peptides were added to cells transfected with luciferase gene downstream of a Wnt-responsive promoter. Cells were stimulated with Wnt3a protein and incubated with peptides from libraries described herein. Luminescence was recorded to determine the peptides with the highest β-catenin-inhibiting activity. EC50 values were calculated based on the inhibition of luminescence and expressed as concentration (uM) in Table 5.
Peptides were assessed for their ability to inhibit Wnt signaling. Murine 3T3 fibroblasts that express luciferase under a Wnt-responsive promoter (TCF/LEF) (Enzo Life Sciences, Farmingdale, NY) were stimulated with Wnt3a in the presence of increasing concentrations of peptide inhibitor (Hit 1: SEQ ID NO:217, Hit 2: SEQ ID NO:224, Hit 3: SEQ ID NO:228, Hit 4: SEQ ID NO:227, Hit 5: SEQ ID NO:220, Hit 6: SEQ ID NO:168. Hit 7: SEQ ID NO:226) or with vehicle control (FIG. 2A).

β-catenin = target: T1, β-catenin (Homo sapiens, UniProt P35222); experiment: KD50 measurement using competitive fluorescence polarization (FP) with labelled TCF4; format: binding; conditions: fluorescence polarization, β-catenin; for Kd: read-out: β-Cat FP KD
T1 sequence (P35222 1-781): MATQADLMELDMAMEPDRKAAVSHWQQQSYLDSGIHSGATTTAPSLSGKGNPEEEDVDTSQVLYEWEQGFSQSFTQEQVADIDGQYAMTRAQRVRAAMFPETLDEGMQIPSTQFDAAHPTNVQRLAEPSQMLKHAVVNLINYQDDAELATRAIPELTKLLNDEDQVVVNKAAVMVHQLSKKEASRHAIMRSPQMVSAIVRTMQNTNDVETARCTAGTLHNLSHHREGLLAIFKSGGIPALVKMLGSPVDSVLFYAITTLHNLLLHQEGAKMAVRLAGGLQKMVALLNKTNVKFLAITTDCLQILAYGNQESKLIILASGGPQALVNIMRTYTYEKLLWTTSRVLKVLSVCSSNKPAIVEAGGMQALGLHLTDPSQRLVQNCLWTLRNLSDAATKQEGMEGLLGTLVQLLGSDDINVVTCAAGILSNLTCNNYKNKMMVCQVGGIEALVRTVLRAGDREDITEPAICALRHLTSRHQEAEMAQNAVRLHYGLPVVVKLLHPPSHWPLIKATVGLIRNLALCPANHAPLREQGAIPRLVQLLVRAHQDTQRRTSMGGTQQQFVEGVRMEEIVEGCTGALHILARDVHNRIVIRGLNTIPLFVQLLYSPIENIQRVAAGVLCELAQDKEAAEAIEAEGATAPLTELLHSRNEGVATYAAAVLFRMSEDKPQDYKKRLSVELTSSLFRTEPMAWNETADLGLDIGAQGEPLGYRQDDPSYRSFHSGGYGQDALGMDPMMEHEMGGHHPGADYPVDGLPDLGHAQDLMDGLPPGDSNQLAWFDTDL
Method in brief: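 Competitive FP in which unlabelled inhibitor (10 nM to 30 uM dilution series) displaces 5 nM labelled TCF4 from 100 nM β-catenin, room temperature. Read-out ex 470 nm, em 520 nm; experiment repeated three times.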

Structure (SMILES)	EC50 [1] [µM]	β-Cat FP Hill slope (β-catenin)	Kd (β-catenin) [µM]
CC[C@H](C)[C@H](NC(=O)[C@H](CO)NC(=O)[C@H](CCC(N)=O)NC(=O)[C@@H]1CCCN1C(=O)[C@H](Cc1c[nH]c2ccccc12)NC(C)=O)C(=O)N[C@@H](CC(C)C)C(=O)N[C@@H](CC(=O)O)C(=O)N[C@H]1CCC(=O)NCCCC[C@@H](C(=O)N[C@H](C(=O)N[C@@H](Cc2c[nH]c3ccccc23)C(=O)NCC(N)=O)C(C)C)NC(=O)[C@H](CCC(N)=O)NC(=O)[C@H](C2CCCCC2)NC(=O)[C@H](Cc2c[nH]cn2)NC1=O [compound 472] (HELM PEPTIDE1{[ac].W.P.Q.S.I.L.D.E.H.[O=C([C@@H](N[*:1])C1CCCCC1)[*:2]].Q.K.V.W.G.[am]}$PEPTIDE1,PEPTIDE1,9:R3-13:R3$$$V2.0)	7.5 to 15	0.89	< 0.4
CCCCCCCCCCCC(=O)N[C@@H](Cc1c[nH]c2ccccc12)C(=O)N(C)[C@@H](C)C(=O)N[C@@H](CCC(N)=O)C(=O)N[C@H]1CCCCNC(=O)CC[C@@H](C(=O)N[C@@H](Cc2c[nH]cn2)C(=O)N[C@H](C(=O)N[C@H]2CCC(=O)NCCCC[C@@H](C(N)=O)NC(=O)[C@H](Cc3c[nH]c4ccccc34)NC(=O)[C@H](C(C)C)NC(=O)[C@H](CC(=O)O)NC2=O)C2CCCCC2)NC(=O)[C@H](CC(=O)O)NC(=O)[C@H](CC(C)C)NC(=O)[C@H]([C@@H](C)CC)NC1=O [compound 465] (HELM PEPTIDE1{[CCCCCCCCCCCC(=O)[*:2]].W.[meA].Q.K.I.L.D.E.H.[O=C([C@@H](N[*:1])C1CCCCC1)[*:2]].E.D.V.W.K.[am]}$PEPTIDE1,PEPTIDE1,5:R3-9:R3|PEPTIDE1,PEPTIDE1,12:R3-16:R3$$$V2.0; bridges inferred)	< 7.5	0.7	–
CC[C@H](C)[C@@H]1NC(=O)[C@@H](NC(=O)[C@H](CCC(N)=O)NC(=O)[C@@H]2CCCCN2C(=O)[C@H](Cc2c[nH]c3ccccc23)NC(C)=O)CCCCNC(=O)CC[C@@H](C(=O)N[C@@H](Cc2c[nH]cn2)C(=O)N[C@H](C(=O)N[C@@H](CCC(N)=O)C(=O)N[C@@H](CCCNC(=N)N)C(=O)N[C@H](C(=O)N[C@@H](Cc2c[nH]c3ccccc23)C(=O)NCC(N)=O)C(C)C)C2CCCCC2)NC(=O)[C@H](CC(=O)O)NC(=O)[C@H](CC(C)C)NC1=O [compound 442] (HELM PEPTIDE1{[ac].W.[O=C([C@@H]1CCCCN1[*:1])[*:2]].Q.K.I.L.D.E.H.[O=C([C@@H](N[*:1])C1CCCCC1)[*:2]].Q.R.V.W.G.[am]}$PEPTIDE1,PEPTIDE1,5:R3-9:R3$$$V2.0)	< 7.5	1.51	< 0.4
CC[C@H](C)[C@H](NC(=O)[C@H](CO)NC(=O)[C@H](CCC(=O)O)NC(=O)[C@@H]1CCCN1C(=O)[C@H](CC(C)C)NC(=O)[C@H](CCCNC(=N)N)NC(=O)CCN)C(=O)N[C@@H](CC(C)C)C(=O)N[C@@H](CC(=O)O)C(=O)N[C@@H](CCC(=O)O)C(=O)N[C@@H](Cc1c[nH]cn1)C(=O)N[C@H](C(=O)N[C@@H](CCC(N)=O)C(=O)N[C@@H](CCCNC(=N)N)C(=O)N[C@H](C(=O)N[C@@H](Cc1c[nH]c2ccccc12)C(=O)N1CCC[C@H]1C(N)=O)C(C)C)C(C)C [compound 410] (HELM PEPTIDE1{[bAla].R.L.P.E.S.I.L.D.E.H.V.Q.R.V.W.P.[am]}$$$$V2.0)	> 30	1.6	0.4 to 1
CC[C@H](C)[C@@H]1NC(=O)[C@@H](NC(=O)[C@H](CCC(N)=O)NC(=O)[C@@H]2CCCN2C(=O)[C@H](Cc2c[nH]c3ccccc23)NC(=O)[C@H](CCCNC(=N)N)NC(C)=O)CCCCNC(=O)CC[C@@H](C(=O)N[C@@H](Cc2c[nH]cn2)C(=O)N[C@H](C(=O)N[C@@H](CCCNC(=N)N)C(=O)N[C@@H](CCCNC(=N)N)C(=O)N[C@H](C(=O)N[C@@H](Cc2c[nH]c3ccccc23)C(=O)N[C@@H](CCCNC(=N)N)C(N)=O)C(C)C)C(C)C)NC(=O)[C@H](CC(=O)O)NC(=O)[C@H](CC(C)C)NC1=O [compound 428] (HELM PEPTIDE1{[ac].R.W.P.Q.K.I.L.D.E.H.V.R.R.V.W.R.[am]}$PEPTIDE1,PEPTIDE1,6:R3-10:R3$$$V2.0)	> 30	0.94	< 0.4

Next, values leading:

EC50 [1] [µM]	β-Cat FP Hill slope (β-catenin)	Kd (β-catenin) [µM]	Structure (SMILES)
> 30	0.76	< 0.4	CC[C@H](C)[C@@H]1NC(=O)[C@@H](NC(=O)[C@H](CCC(N)=O)NC(=O)[C@H](C)N(C)C(=O)[C@@H](N)Cc2c[nH]c3ccccc23)CCCCNC(=O)CC[C@@H](C(=O)N[C@@H](Cc2c[nH]cn2)C(=O)N[C@H](C(=O)N[C@@H](CCC(N)=O)C(=O)N[C@@H](CCCNC(=N)N)C(=O)N[C@H](C(=O)N[C@@H](Cc2c[nH]c3ccccc23)C(=O)NCC(N)=O)C(C)C)C2CCCCC2)NC(=O)[C@H](CC(=O)O)NC(=O)[C@H](CC(C)C)NC1=O [compound 403] (HELM PEPTIDE1{W.[meA].Q.K.I.L.D.E.H.[O=C([C@@H](N[*:1])C1CCCCC1)[*:2]].Q.R.V.W.G.[am]}$PEPTIDE1,PEPTIDE1,4:R3-8:R3$$$V2.0)
> 30	0.96	< 0.4	CC[C@H](C)[C@H](NC(=O)C(C)(CO)NC(=O)[C@H](CCC(=O)O)NC(=O)[C@H](Cc1c[nH]c2ccccc12)NC(=O)[C@@H](N)CCSC)C(=O)N[C@@H](CC(C)C)C(=O)N[C@@H](CC(=O)O)C(=O)N[C@@H](CCC(=O)O)C(=O)N[C@@H](Cc1c[nH]cn1)C(=O)N[C@H](C(=O)N[C@@H](CCC(N)=O)C(=O)N[C@@H](CCCNC(=N)N)C(=O)N[C@H](C(=O)N[C@@H](Cc1c[nH]c2ccccc12)C(=O)NCC(N)=O)C(C)C)C(C)C (some centres unmarked) [compound 35] (HELM PEPTIDE1{M.W.E.[CC(CO)(N[*:1])C(=O)[*:2]].I.L.D.E.H.V.Q.R.V.W.G.[am]}$$$$V2.0)
> 30	0.9	< 0.4	CC[C@H](C)[C@H](NC(=O)C(C)(CO)NC(=O)[C@H](CCC(=O)O)NC(=O)[C@H](Cc1c[nH]c2ccccc12)N(C)C(=O)[C@@H](N)Cc1c[nH]c2ccccc12)C(=O)N[C@@H](CC(C)C)C(=O)N[C@@H](CC(=O)O)C(=O)N[C@@H](CCC(=O)O)C(=O)N[C@@H](Cc1c[nH]cn1)C(=O)NC(C)(C(=O)N[C@@H](CCC(N)=O)C(=O)N[C@@H](CCCNC(=N)N)C(=O)N[C@H](C(=O)N[C@@H](Cc1c[nH]c2ccccc12)C(=O)NCC(N)=O)C(C)C)C(C)C (some centres unmarked) [compound 38] (HELM PEPTIDE1{W.[meW].E.[CC(CO)(N[*:1])C(=O)[*:2]].I.L.D.E.H.[CC(C)C(C)(N[*:1])C(=O)[*:2]].Q.R.V.W.G.[am]}$$$$V2.0)
> 30	1.86	< 0.4	CC[C@H](C)[C@@H]1NC(=O)[C@@H](NC(=O)[C@H](CCC(N)=O)NC(=O)[C@H](C)NC(=O)[C@H](Cc2c[nH]c3ccccc23)NC(C)=O)CCCCNC(=O)CC[C@@H](C(=O)N[C@@H](Cc2c[nH]cn2)C(=O)N[C@H](C(=O)N[C@@H](CCC(N)=O)C(=O)N[C@@H](CCCNC(=N)N)C(=O)N[C@H](C(=O)N[C@@H](Cc2c[nH]c3ccccc23)C(=O)NCC(N)=O)C(C)C)C2CCCCC2)NC(=O)[C@H](CC(=O)O)NC(=O)[C@H](CC(C)C)NC1=O [compound 441] (HELM PEPTIDE1{[ac].W.A.Q.K.I.L.D.E.H.[O=C([C@@H](N[*:1])C1CCCCC1)[*:2]].Q.R.V.W.G.[am]}$PEPTIDE1,PEPTIDE1,5:R3-9:R3$$$V2.0)
